Publication PMC11324666, “Two novel in vitro assays to screen chemicals for their capacity to inhibit thyroid hormone transmembrane transporter proteins OATP1C1 and OAT4” (Archives of Toxicology, 2024)
Read-outs that look alike come from different tables or passages of the source.

Key:
OATP1C1 = target: T1, OATP1C1 (Homo sapiens, UniProt Q9NYB5); test: CHO-K1 OATP1C1 TH uptake assay with 125I-T4 tracer; assay type: cell-based; details: for 125I-T4 uptake compared to the vehicle control (range finding): single concentration 10 or 100 µM, below 80% = positive hit
T1 construct: host or cells: CHO-K1
T1 sequence (Q9NYB5 1-712): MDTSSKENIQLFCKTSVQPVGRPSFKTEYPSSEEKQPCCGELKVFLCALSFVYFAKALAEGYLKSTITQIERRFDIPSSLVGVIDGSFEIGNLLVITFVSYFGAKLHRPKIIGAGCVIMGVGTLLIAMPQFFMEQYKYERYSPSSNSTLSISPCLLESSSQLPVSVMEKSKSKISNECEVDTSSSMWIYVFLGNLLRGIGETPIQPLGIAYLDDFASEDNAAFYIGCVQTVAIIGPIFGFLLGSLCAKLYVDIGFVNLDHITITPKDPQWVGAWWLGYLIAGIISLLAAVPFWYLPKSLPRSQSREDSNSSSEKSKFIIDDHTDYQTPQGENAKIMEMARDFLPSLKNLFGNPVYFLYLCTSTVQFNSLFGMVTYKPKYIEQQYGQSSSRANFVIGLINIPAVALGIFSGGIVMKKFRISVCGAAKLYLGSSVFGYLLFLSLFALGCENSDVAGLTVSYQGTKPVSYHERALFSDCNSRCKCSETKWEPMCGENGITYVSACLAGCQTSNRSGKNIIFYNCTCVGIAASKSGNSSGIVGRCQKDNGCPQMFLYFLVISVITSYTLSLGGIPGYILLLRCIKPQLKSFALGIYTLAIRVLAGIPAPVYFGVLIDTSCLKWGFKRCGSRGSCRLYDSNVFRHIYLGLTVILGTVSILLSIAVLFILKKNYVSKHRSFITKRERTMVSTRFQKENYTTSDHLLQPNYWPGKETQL
Experimental: MDCK-OAT4 and MDCK-DEST cells were cultured in DMEM:F12 (L-glutamine, 15 mM HEPES) (Gibco) supplemented with (100 µg/mL penicillin + 100 µg/mL streptomycin), 10% fetal calf serum (Gibco) and 2 µg/mL blasticidin (Sigma). CHO-K1 OATP1C1 or WT cells were cultured in F12 nutrient mix (Gibco) supplemented with (100 µg/mL penicillin + 100 µg/mL streptomycin), 10% fetal calf serum (Gibco) and […] G418 (Sigma). All cell cultures were incubated at 37 °C with 5% CO2 saturation until 80% confluency. MDCK-OAT4 and MDCK-DEST cells were seeded in 96 wells plate at a density of 4 × 10^5 cells in 100 µL medium per well and incubated for 24 h before the start of the MDCK-OAT4 TH uptake assay. CHO-K1 OATP1C1 and WT cells were seeded in 96 wells plate at a density of 3 × 10^5 cells in 100 µL medium per well 72 h before the CHO-K1 OATP1C1 TH uptake assay. Medium from CHO-K1 OATP1C1 or WT assay plates was changed to serum-free F12 medium containing 5 mM sodium-butyrate 24 h before start of the CHO-K1 OATP1C1 TH uptake assay to increase transfected expression of SV-40 promotor plasmids.
Subsequently 10 µL of a tenfold stock of test compound in uptake buffer (solvent concentration 1% v/v) was added to each well. […] Cells were exposed at 37 °C for 20 min (MDCK-OAT4) or 30 min (CHO-K1 OATP1C1), unless stated differently. After exposure, cells were immediately washed with ice-cold PBS supplemented with 0.1% bovine serum albumin (BSA). Subsequently, cells were lysed in 50 µL of 0.1 M NaOH under continuous shaking at room temperature. After 20 min, cell lysates were manually transferred into separate 5 mL polypropylene tubes. One tube was also prepared with 10 µL of the T4 tracer solution. Radioactivity was measured in a Wizard^2 gamma counter (Perkin Elmer).
For the CHO-K1 OATP1C1 TH uptake assay total of 29 chemicals (Table 1) were selected for the EDC screening based on available literature data. […] The same chemicals were selected for the MDCK-OAT4 TH uptake assay, with the exception of BPF, VRP and TCS. […] The THTMT TH uptake assay was then performed as described earlier. […] A concentration of 100 µM ICG was used as a reference chemical for OATP1C1 and 100 µM LESI for OAT4. At least three independent experiments were performed for each chemical.
Raw values were normalized to the total amount of radioactivity in the T4 tracer solution. These values were expressed as a percentage of total radioactivity added (or uptake percentage) and used for all further data analysis. Statistically significant differences between the T4 uptake of transfected and wild type cells, in the presence or absence of inhibitor, were determined by two-way ANOVA (α = 5%, two-sided). […] In brief, uptake values were normalized to the median response of the vehicle and positive controls for each plate. […] Statistical analysis were performed using GraphPad Prism version 8 for Windows (GraphPad Software, San Diego, California USA) and SAS 9.3 (SAS Institute, Cary NC).

CHO-K1 OATP1C1 cells = details: for Cytotoxicity IC10: concentration that inhibits cell viability by 10%, CHO-K1 OATP1C1 cells, 30 min exposure
Experimental: Cell viability was assessed through the quantitation of ATP present in cells using the commercially available CellTiter-Glo® luminescent cell viability assay and performed according to the manufacturer’s instruction (Promega, Leiden, the Netherlands). Briefly, cells were seeded as described earlier in opaque-walled clear-bottom 96 well plates. On the day of the experiment, each well was washed with 200 µL phosphate buffered saline (PBS) and exposed to 80 µL of uptake buffer, 10 µL of a tenfold stock of test compound solved in uptake buffer or control and 10 µL of T4 (final concentration 10 nM). 0.1% DMSO was used as a solvent control, while 10% DMSO was used as a positive control. After exposure for the indicated times similar to THTMT TH uptake assay, cells were immediately washed with ice-cold PBS + 0.1%BSA and exposed to 100 µL of the CellTiter-Glo® Reagent. Plates were then shaken on an orbital shaker for 2 min and left to incubate at room temperature for 10 min. Luminescence was measured on a BioTek Cytation 5 microplate reader. […] Each individual experiment was repeated at least twice and contained three technical replicates of each control and concentration tested.
Figure S1. […] Blue dots indicate the plate medians from three or four independent experiments, all control and chemical concentrations were tested in triplicates per plate.

[1] = concentration that inhibits 125I-T4 uptake by 20%, 10 nM T4, 30 min, brackets = 95% CI

Structure (SMILES)	T4 uptake inhibition BMC20 (M), [CI] (OATP1C1)	Cytotoxicity IC10 (CHO-K1 OATP1C1 cells) [µM]	BMC20 (20% reduction in T4 uptake) (OATP1C1) [µM]	T4 uptake inhibition BMC20 (M), [CI] (OATP1C1; [1])	125I-T4 uptake compared to the vehicle control (range finding) (OATP1C1; 10 nM T4, 30 min)	T4 uptake on co-exposure to known inhibitor (OATP1C1; 100 µM, t = 40 min, versus CHO-K1 wildtype cells)	cytotoxic effects (CHO-K1 OATP1C1 cells; at concentrations of the uptake assay, Figure S1)
Oc1c(Cl)c(Cl)c(Cl)c(Cl)c1Cl [Pentachlorophenol]	8.81E−08 [5.80E−08; 1.34E−07] M	> 18.5					
CC(C)(c1cc(Br)c(O)c(Br)c1)c1cc(Br)c(O)c(Br)c1 [Tetrabromobisphenol A, Tetrabromobisphenol-A]		> 0.3	0.0020	2.03E−09 [1.28E−09; 3.22E−09] M	below 80%		
O=S(=O)([O-])c1cc(S(=O)(=O)O)ccc1C1=c2cc3c4c(c2Oc2c1cc1c5c2CCCN5CCC1)CCC[N+]=4CCC3 [Sulforhodamine 101, reference compound]		> 10		2.86E−06 [1.29E−06; 6.34E−06] M	below 80%		
O=S(=O)(O)C(F)(F)C(F)(F)C(F)(F)C(F)(F)C(F)(F)C(F)(F)C(F)(F)C(F)(F)F [Perfluorooctanesulfonic acid]		> 100		4.03E−07 [2.32E−07; 7.00E−07] M	below 80%		
CC1(C)C(/C=C/C=C/C=C/C=C2\N(CCCCS(=O)(=O)O)c3ccc4ccccc4c3C2(C)C)=[N+](CCCCS(=O)(=O)[O-])c2ccc3ccccc3c21 [Indocyanine green, reference compound]		> 100		3.60E−07 [2.17E−07; 5.97E−07] M		decreased back to control	
CO[C@H]1/C=C/O[C@@]2(C)Oc3c(C)c(O)c4c(O)c(c(/C=N/N5CCN(C)CC5)c(O)c4c3C2=O)NC(=O)/C(C)=C\C=C\[C@H](C)[C@H](O)[C@@H](C)[C@@H](O)[C@@H](C)[C@H](OC(C)=O)[C@@H]1C [Rifampicin, reference compound]		> 100		4.06E−05 [2.58E−05; 6.38E−05] M			
COc1cc([C@@H]2Oc3c(O)cc([C@H]4Oc5cc(O)cc(O)c5C(=O)[C@@H]4O)cc3[C@H]2CO)ccc1O [Silychristin, reference compound]		> 10		3.78E−06 [1.54E−06; 9.27E−06] M	below 80%		
O=C1OC(c2ccc(O)c(S(=O)(=O)O)c2)(c2ccc(O)c(S(=O)(=O)O)c2)c2c(Br)c(Br)c(Br)c(Br)c21 [Bromosulfophthalein, reference compound]		> 100		8.72E−07 [5.70E−07; 1.33E−06] M	below 80%		
CCCN(CCC)S(=O)(=O)c1ccc(C(=O)O)cc1 [Probenecid, reference compound]		> 100		6.66E−07 [1.24E−07; 3.57E−06] M			
O=c1c(O)c(-c2ccc(O)c(O)c2)oc2cc(O)cc(O)c12 [Quercetin]		> 100		3.94E−08 [4.41E−09; 3.51E−07] M			
Oc1ccc(Cc2ccc(O)cc2)cc1 [Bisphenol F, Bisphenol-F]		> 100		4.49E−05 [2.80E−05; 7.20E−05] M	below 80%		
O=C(O)C(F)(F)C(F)(F)C(F)(F)C(F)(F)C(F)(F)C(F)(F)C(F)(F)F [Perfluorooctanoic acid]		> 100		2.94E−06 [1.04E−06; 8.36E−06] M			
Oc1ccc(C(c2ccc(O)cc2)(C(F)(F)F)C(F)(F)F)cc1 [Bisphenol AF, Bisphenol-AF]		0.909		3.52E−06 [2.03E−06; 6.11E−06] M			confounded by cytotoxic effects
